What was measured:
[1] = tested on: MG63 cells; assay: ALP (alkaline phosphatase) assay, osteoblastic cell differentiation; type: cell-based, human; conditions: 7 days, control poly-L-lysine-coated
Procedure: (§1) MG63 cells (Korean Cell Line Bank, KCLB), used in the present invention, which is a human osteosarcoma cell line, were cultured in Dulbecco's modified Eagle's medium (DMEM) containing 10% (v/v) fetal bovine serum and 0.1% (w/v) gentamycin at 37° C., in a humidified 5% CO2 incubator.
In order to determine osteoblastic cell differentiation, ALP (Alkaline phosphatase) activity that implies in vitro bone formation activity, was measured. 5×10^4 MG63 cells were cultured in 0.1 μM recombinant oligopeptide-coated or poly-L-lysine-coated six-well plates for 7 days. Then, they were washed with PBS and lysed in 1.5 M Tris/HCl (pH 10.2) containing 1 mM ZnCl2, 1 mM MgCl2 and 1% (w/v) Triton X-100 at 4° C. for 10 min. After clarifying the cell lysates by centrifugation, the ALP activity was assayed according to the manufacturer's protocol for the ALP assay kit (Sigma, USA).

[2] = tested on: MG63 cells; assay: Cell adhesion assay on coated culture plates; type: cell-based, human; conditions: plates coated with 0.1 μM recombinant oligopeptide; control poly-L-lysine-coated plate; P<0.05
Procedure: as §1
24-well plates were coated with 0.1 μM recombinant oligopeptide or poly-L-lysine at a predetermined concentration overnight at 4° C. and blocked with PBS containing 1% (w/v) BSA for 30 min, then rinsed with PBS.
The MG63 cells were serum-starved for 24 hours, harvested in 0.02% (w/v) trypsin, 1 mM EDTA, and resuspended in DMEM. After being washed 3 times with DMEM containing 100 μg/Ml soybean trypsin inhibitor and 1% (w/v) BSA, 5×10^4 MG63 cells in DMEM were plated in each well to culture at 37° C. for 30 min or 1 hour. Suspensions of control cells were maintained in BSA-coated plates at a given time. After 30 min, adherent cells were washed twice with PBS, fixed with 3% (w/v) paraformaldehyde, and stained with 0.25% (w/v) Crystal Violet (Sigma, USA) in 2% (v/v) ethanol/water. After washing with distilled water, the plates were allowed to dry. The absorbancy was measured at 570 nm to represent the mean±SD (standard deviation). Non-specific adhesion was determined using 1% BSA as a negative control group. […]

## DPHSRN-SITGTNLTPGYTITVYAVTG-RGD (DPHSRNSITGTNLTPGYTITVYAVTGRGD) [F20]
[1]; 0.1 μM oligopeptide-coated plates
  ALP activity of MG63 cells compared with control plates: 2.5 fold
[1]; 0.1 μM oligopeptide-coated six-well plates, n=3, P<0.05
  ALP activity of MG63 cells compared with control plates: 2.5 times
[2]
  cell adhesion capacity (absorbance at 570 nm) compared with control plates: 2 fold
